Data as given in PMC11456921 (RSC Advances, 2024).
≈ marks a conversion by molar mass, not a printed value.

Legend:
[1] = molecular target: GSK3β (Homo sapiens, UniProt P49841); type: biochemical
[2] = molecular target: CDK2/cyclin A (Homo sapiens, UniProt P24941); type: biochemical
[3] = tested on: HEp-2 human laryngeal carcinoma cell line; experiment: In vitro anti-proliferative assay, SRB method, HEp-2; type: cell-based; conditions: for IC50: Homo sapiens, HEp-2, 48 h, read-out: IC50 against HEp-2; for HEp-2 (% inhibition): single concentration 100 μg mL^−1, 48 h, SRB, mean ± SD
[4] = tested on: MCF-7 human breast carcinoma cell line; experiment: In vitro anti-proliferative assay, sulforhodamine-B; type: cell-based; conditions: single concentration 100 μg mL^−1, 48 h, SRB; mean ± SD
[5] = tested on: HEp-2 cells; experiment: Reduced glutathione; type: cell-based, human; conditions: HEp-2, treated with IC50 for 48 h
[6] = tested on: Vero normal African green monkey kidney cell line; experiment: In vitro anti-proliferative assay, SRB method, normal Vero cells; type: cell-based; conditions: single concentration 100 μg mL^−1, 48 h, mean ± SD
[7] = tested on: HEp-2 cells; experiment: Total nitrate/nitrite; type: cell-based, human; conditions: HEp-2, treated with IC50 for 48 h
[8] = tested on: HepG2 cells; experiment: Total nitrate/nitrite; type: cell-based, human; conditions: HepG2, treated with IC50 for 48 h
[9] = tested on: HepG2 cells; experiment: Reduced glutathione; type: cell-based, human; conditions: HepG2, treated with IC50 for 48 h
[10] = tested on: HepG2 cells; experiment: Cell cycle analysis by flow cytometry; type: cell-based, human; conditions: HepG2, 9.5 μg mL^−1 (IC50), 24 h
[11] = tested on: HepG2 cells; experiment: Apoptosis detection, annexin V-FITC/PI flow cytometry; type: cell-based, human; conditions: HepG2, 9.5 μg mL^−1 (IC50), 24 h; DMSO control 1.18%
[12] = tested on: HepG2 human hepatocellular carcinoma cell line; experiment: In vitro anti-proliferative assay, SRB method, HepG2; type: cell-based

Sequence of GSK3β (P49841 whole entry): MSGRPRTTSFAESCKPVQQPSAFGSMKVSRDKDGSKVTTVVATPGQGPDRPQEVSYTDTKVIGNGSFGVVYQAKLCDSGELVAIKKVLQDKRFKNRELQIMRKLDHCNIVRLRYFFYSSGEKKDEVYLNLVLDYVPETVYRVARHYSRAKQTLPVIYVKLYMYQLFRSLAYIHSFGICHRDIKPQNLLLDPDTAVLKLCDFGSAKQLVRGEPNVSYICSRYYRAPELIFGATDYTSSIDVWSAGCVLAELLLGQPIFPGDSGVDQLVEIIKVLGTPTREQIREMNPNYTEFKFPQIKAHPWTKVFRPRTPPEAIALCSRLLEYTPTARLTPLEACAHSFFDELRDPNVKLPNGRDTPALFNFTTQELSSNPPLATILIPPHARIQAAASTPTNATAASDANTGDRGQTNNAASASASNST

C/C(=N\NC(N)=S)c1ccccn1 [1a, (E)-2-(1-(pyridin-2-yl)ethylidene)hydrazine-1-carbothioamide]
IC50 [1]: 2250 nM
GSK3β inhibitory activity compared with CHIR-99021 ([1]; from IC50 values of Table 2): the reference drug showing nearly six times its inhibitory activity
IC50 [2]: 16700 nM
Roscovitine inhibitory activity against CDK2/cyclin A relative to the compound ([2]; from IC50 values of Table 2): more than 3.5 times
IC50 [3]: 7.5 µg/mL (≈ 38.6 µM)
HEp-2 (% inhibition) [3]: 79.91 ± 0.7%

CCn1c(C)c(C(C)=O)s/c1=N/N=C(\C)c1ccccn1 [3b, 1-((E)-3-Ethyl-4-methyl-2-(((E)-1-(pyridin-2-yl)ethylidene)hydrazono)-2,3-dihydrothiazol-5-yl)ethan-1-one]
MCF-7 (% inhibition) [4]: 73.52 ± 1.6%

C/C(=N\N=C1/NC(=O)C(C)S1)c1ccccn1 (stereo not shown) [7a, (E)-5-Methyl-2-(((E)-1-(pyridin-2-yl)ethylidene)hydrazono)thiazolidin-4-one]
MCF-7 (% inhibition) [4]: 72.79 ± 1.3%

CC(=O)C1S/C(=N/N=C(\C)c2ccccn2)NC1=O (stereo not shown) [8a, (E)-5-Acetyl-2-(((E)-1-(pyridin-2-yl)ethylidene)hydrazono)thiazolidin-4-one]
Reduction in GSH content compared to untreated cells [5]: 14%
Vero (% inhibition) [6]: 44.24 ± 2.8%
IC50 [1]: 485 nM
IC50 [2]: 2440 nM
Stronger inhibitory activity against CDK2/cyclin A compared with roscovitine ([2]; from IC50 values of Table 2): 1.3 fold
IC50 [3]: 5.9 µg/mL (≈ 21.4 µM)
HEp-2 (% inhibition) [3]: 78.67 ± 2.5%
Increase of NOx level compared to untreated cells [7]: 19%

CCN1C(=O)/C(=C\c2ccc(F)cc2)S/C1=N/N=C(\C)c1ccccn1 [9b, (E)-3-Ethyl-5-((E)-4-fluorobenzylidene)-2-(((E)-1-(pyridin-2-yl)ethylidene)hydrazono)thiazolidin-4-one]
MCF-7 (% inhibition) [4]: 70.58 ± 1.8%

C/C(=N\N=C1/NC(=O)/C(=C\c2ccc(Cl)cc2)S1)c1ccccn1 [10a, (E)-5-((E)-4-Chlorobenzylidene)-2-(((E)-1-(pyridin-2-yl)ethylidene)hydrazono)thiazolidin-4-one]
MCF-7 (% inhibition) [4]: 71.32 ± 3.4%

C/C(=N\N=c1/[nH]c(C)c(/N=N/c2ccc(C)cc2)s1)c1ccccn1 [13a, (E)-4-Methyl-2-(((E)-1-(pyridin-2-yl)ethylidene)hydrazono)-5-((E)-p-tolyldiazenyl)-2,3-dihydrothiazole]
Increase of NOx level compared to untreated cells [8]: 25%
Reduction in GSH level compared to untreated cells [9]: 33%
Cells in G0–G1 phase (%DIP G1) [10]: 59.62%
Necrotic cells [11]: 3.25%
IC50 ([12]; Homo sapiens, HepG2, 48 h, read-out: IC50 against HepG2): 9.5 µg/mL (≈ 27.1 µM)
HepG2 (% inhibition) ([12]; single concentration 100 μg mL^−1, 48 h, SRB, mean ± SD): 76.56 ± 1.3%
Vero (% inhibition) [6]: 41.81 ± 2.3%
IC50 [1]: 337 nM
IC50 [2]: 1130 nM
Stronger inhibitory activity against CDK2/cyclin A compared with roscovitine ([2]; from IC50 values of Table 2): 2.2 fold
